The target in test [1] is T1, Melanin-concentrating hormone receptor 1 (Homo sapiens, UniProt Q99705). Briefly: Antagonist activity at CART form of human MCH1 receptor expressed in HEK293 cells coexpressing Galphaq assessed as inhibition of MCH-induced intracellular calcium level by FLIPR assay. Type of test: functional, cell-based. In general terms: Calcium flux is commonly read through the fluorescence of an indicator in the cells.
Target sequence in this assay (Q99705 whole entry, looked up): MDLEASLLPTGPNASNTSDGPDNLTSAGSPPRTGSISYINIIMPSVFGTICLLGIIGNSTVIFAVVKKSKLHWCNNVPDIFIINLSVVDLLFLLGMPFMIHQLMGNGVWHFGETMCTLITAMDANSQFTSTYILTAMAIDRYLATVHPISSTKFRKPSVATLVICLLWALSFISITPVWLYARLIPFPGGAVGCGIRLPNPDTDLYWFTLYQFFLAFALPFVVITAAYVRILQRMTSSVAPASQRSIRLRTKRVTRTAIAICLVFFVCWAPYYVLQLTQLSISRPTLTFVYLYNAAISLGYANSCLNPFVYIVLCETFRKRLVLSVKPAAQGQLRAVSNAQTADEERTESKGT

The target in test [2] is T2, Alpha-1A adrenergic receptor (Homo sapiens, UniProt P35348).
T2 sequence (P35348 whole entry): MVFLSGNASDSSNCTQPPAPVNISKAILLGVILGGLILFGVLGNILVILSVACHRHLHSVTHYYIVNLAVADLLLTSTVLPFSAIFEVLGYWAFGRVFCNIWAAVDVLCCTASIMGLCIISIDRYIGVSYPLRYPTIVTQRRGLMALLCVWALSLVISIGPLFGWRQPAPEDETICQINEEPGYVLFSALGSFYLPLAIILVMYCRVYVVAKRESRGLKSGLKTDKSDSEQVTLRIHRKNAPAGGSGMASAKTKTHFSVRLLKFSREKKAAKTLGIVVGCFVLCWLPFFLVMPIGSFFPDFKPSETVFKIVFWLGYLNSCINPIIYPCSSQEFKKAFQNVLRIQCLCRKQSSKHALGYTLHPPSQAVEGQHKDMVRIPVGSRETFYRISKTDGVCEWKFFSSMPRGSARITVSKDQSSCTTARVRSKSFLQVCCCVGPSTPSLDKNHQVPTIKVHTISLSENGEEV
Briefly: Displacement of [3H]prazosin from human adrenergic alpha1A receptor.

The target of another test is Histamine H1 receptor (Homo sapiens, UniProt P35367). Description: Displacement of [3H]pyrilamine from human histamine H1 receptor.
Test [3] addresses 5-hydroxytryptamine receptor 2B (Homo sapiens, UniProt P41595). Briefly: Displacement of [3H]rauwolsine from human 5HT2B receptor. (Loss of bound radioactivity is the signal in a displacement assay; it reports binding, not function.)
In test [4] the target is T3, Alpha-2A adrenergic receptor (Homo sapiens, UniProt P08913).
T3 sequence (P08913 whole entry): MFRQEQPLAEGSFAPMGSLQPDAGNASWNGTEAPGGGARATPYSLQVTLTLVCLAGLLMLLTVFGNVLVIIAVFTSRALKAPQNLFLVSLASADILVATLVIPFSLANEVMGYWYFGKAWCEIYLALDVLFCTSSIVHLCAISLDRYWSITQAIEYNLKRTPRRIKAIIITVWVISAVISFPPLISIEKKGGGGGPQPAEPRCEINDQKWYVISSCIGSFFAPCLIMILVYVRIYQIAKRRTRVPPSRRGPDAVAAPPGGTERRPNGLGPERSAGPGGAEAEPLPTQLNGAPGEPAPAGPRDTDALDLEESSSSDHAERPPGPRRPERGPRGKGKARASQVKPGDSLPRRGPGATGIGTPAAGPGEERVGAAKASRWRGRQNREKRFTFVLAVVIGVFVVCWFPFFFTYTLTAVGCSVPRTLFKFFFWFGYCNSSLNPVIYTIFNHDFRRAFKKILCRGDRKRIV
Briefly: Displacement of [3H]MK-912 from human adrenergic alpha2A receptor.

The target in test [5] is T1, Melanin-concentrating hormone receptor 1. Description: Antagonist activity at CART form of human MCH1 receptor expressed in HEK293 cells coexpressing Galphaq assessed as inhibition of MCH-induced intracellular calcium level up to 10 uM by FLIPR assay. It counts as functional, cell-based.
Target sequence in this assay (Q99705 whole entry): as the sequence (Q99705 whole entry, looked up) above
Test [6] has as its system Rattus norvegicus. Description: Reduction in food intake in diet-induced obese Wistar rat chronic feeding model at 6 mg/kg, po once daily after 8 days. Type of test: functional, organism-based. Also on record: dose 6 mg/kg.
Test [7] concerns Rattus norvegicus. Briefly: Reduction in food intake in diet-induced obese Wistar rat chronic feeding model at 6 mg/kg, po once daily measured after 14 days. Also on record: dose 6 mg/kg. It counts as functional, organism-based.

Active and inactive are the calls of the source. The calls are words filed in the database; no cut-off is given here. A value given as a limit tells only on which side of the number the result lay.

Histamine H1 receptor, sequence (P35367 whole entry): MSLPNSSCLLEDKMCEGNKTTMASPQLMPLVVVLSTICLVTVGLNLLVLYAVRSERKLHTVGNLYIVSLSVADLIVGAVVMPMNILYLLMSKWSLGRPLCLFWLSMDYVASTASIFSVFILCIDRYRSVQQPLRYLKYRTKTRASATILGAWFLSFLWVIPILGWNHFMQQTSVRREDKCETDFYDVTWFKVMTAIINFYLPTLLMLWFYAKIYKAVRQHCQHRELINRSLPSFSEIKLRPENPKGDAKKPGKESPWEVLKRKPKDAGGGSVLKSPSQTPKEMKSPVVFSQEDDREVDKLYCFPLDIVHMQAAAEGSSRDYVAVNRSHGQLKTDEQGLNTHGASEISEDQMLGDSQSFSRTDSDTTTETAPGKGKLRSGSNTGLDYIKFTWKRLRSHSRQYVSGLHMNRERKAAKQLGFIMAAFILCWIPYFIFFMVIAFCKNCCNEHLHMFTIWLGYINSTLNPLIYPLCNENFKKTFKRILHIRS
5-hydroxytryptamine receptor 2B, sequence (P41595 whole entry): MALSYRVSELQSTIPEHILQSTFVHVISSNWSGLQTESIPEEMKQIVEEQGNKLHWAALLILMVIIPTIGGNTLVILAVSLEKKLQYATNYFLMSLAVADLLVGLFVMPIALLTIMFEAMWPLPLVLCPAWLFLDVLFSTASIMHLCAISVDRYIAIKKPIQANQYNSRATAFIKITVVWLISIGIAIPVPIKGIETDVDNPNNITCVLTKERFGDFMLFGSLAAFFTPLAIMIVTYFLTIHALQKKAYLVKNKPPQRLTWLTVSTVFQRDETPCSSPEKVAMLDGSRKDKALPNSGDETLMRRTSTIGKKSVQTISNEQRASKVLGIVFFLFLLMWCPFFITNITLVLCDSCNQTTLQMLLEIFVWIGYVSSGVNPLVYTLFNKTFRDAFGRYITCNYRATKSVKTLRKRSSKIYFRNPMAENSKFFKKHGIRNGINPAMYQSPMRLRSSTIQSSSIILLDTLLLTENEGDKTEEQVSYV

In general, IC50 refers to the concentration that gives 50% inhibition. Consider `COc1cccc(C(=O)N[C@H]2CC[C@@H](Nc3nc(C)cc(N(C)C)n3)CC2)c1`, for which the IC50 in test [1] was found to be 0.0076 µM.
As to `CCc1cnc(N[C@H]2CC[C@@H](NC(=O)c3ccc(F)c(F)c3)CC2)nc1N(C)C`, the half-maximal inhibitory concentration (IC50) in test [1] is 0.1 µM.
The same measure, in the same setting: next, `Cc1cccc(C(=O)N[C@H]2CC[C@@H](Nc3nc(C)cc(N(C)C)n3)CC2)c1`: 0.0096 µM.
Turning to `Cc1ccc(C(=O)N[C@H]2CC[C@@H](Nc3ncc(C)c(N(C)C)n3)CC2)cc1`, the IC50 in test [1] is 0.013 µM; in test [2], over 10 µM; at Histamine H1 receptor, 0.17 µM; in test [3] it was 0.12 µM; in test [4], 1.77 µM.
On to `CN(C)c1ccnc(N[C@H]2CC[C@@H](NC(=O)c3ccc(F)c(F)c3)CC2)n1`, for which the outcome in test [5] was inactive.
Consider `Cc1cc(N(C)C)nc(N[C@H]2CC[C@@H](CNC(=O)c3ccc(F)c(F)c3)CC2)n1`, for which the IC50 in test [1] came to 0.21 µM.
`Cc1cnc(N[C@H]2CC[C@@H](CNC(=O)c3cc(C(F)(F)F)cc(C(F)(F)F)c3)CC2)nc1N1CCCC1`: the outcome in test [5] was inactive.
Turning to `Cc1cnc(N[C@H]2CC[C@@H](NC(=O)c3ccc(F)c(F)c3)CC2)nc1NC(C)C`, the outcome in test [5] was inactive.
In the case of `CN(C)c1cc(N(C)C)nc(N[C@H]2CC[C@@H](NC(=O)c3ccc(F)c(F)c3)CC2)n1`, the IC50 in test [1] is 0.058 µM.
The same measure, in the same setting: next, `Cc1nc(N[C@H]2CC[C@@H](NC(=O)c3ccc(F)c(F)c3)CC2)nc(N(C)C)c1C`: 0.0023 µM.
`CCNc1nc(N[C@H]2CC[C@@H](CNC(=O)c3cc(C(F)(F)F)cc(C(F)(F)F)c3)CC2)ncc1C`: the outcome in test [5] was inactive.
With `Cc1cccc(C(=O)N[C@H]2CC[C@@H](Nc3ncc(C)c(N(C)C)n3)CC2)c1`, the IC50 in test [1] turned out to be 0.0029 µM; in test [2] it was 2.79 µM; on Histamine H1 receptor it was 1.6 µM; in test [3], 0.031 µM; in test [4], 0.58 µM.
For `Cc1cnc(N[C@H]2CC[C@@H](CNC(=O)c3ccc(F)c(F)c3)CC2)nc1N(C)C`, in that order: 0.12 µM, 3.6 µM, 0.92 µM, 0.32 µM and 0.21 µM.
On to `CCN(C)c1nc(N[C@H]2CC[C@@H](NC(=O)c3ccc(F)c(F)c3)CC2)ncc1C`, for which the concentration for half-maximal inhibition (IC50) in test [1] came to 0.046 µM.
Regarding `Cc1cc(N(C)C)nc(N[C@H]2CC[C@@H](NC(=O)c3ccc(F)c(F)c3)CC2)n1`, the IC50 in test [1] came out at 0.0025 µM.
`Cc1cc(N(C)C)nc(N[C@H]2CC[C@@H](NC(=O)c3cc(C(F)(F)F)cc(C(F)(F)F)c3)CC2)n1`: the IC50 in test [1] is 0.008 µM; in test [2] it was 1.32 µM; at Histamine H1 receptor, 1.21 µM; in test [3], over 10 µM; in test [4], 0.2 µM.
With `CCNc1nc(N[C@H]2CC[C@@H](NC(=O)c3ccc(F)c(F)c3)CC2)ncc1C`, the result in test [5] was inactive.
For the compound `Cc1cnc(N[C@H]2CC[C@@H](CNC(=O)c3cc(C(F)(F)F)cc(C(F)(F)F)c3)CC2)nc1N`, in test [1], the IC50 is 0.6 µM.
On to `CNc1nc(N[C@H]2CC[C@@H](NC(=O)c3ccc(F)c(F)c3)CC2)ncc1C`, for which, in test [5], the outcome was inactive.
`CNc1nc(N[C@H]2CC[C@@H](CNC(=O)c3cc(C(F)(F)F)cc(C(F)(F)F)c3)CC2)ncc1C`: in test [1], the concentration for half-maximal inhibition (IC50) was found to be 0.2 µM.
The same measure, in the same setting: next, `Cc1cnc(N[C@H]2CC[C@@H](CNC(=O)c3cccc(C(F)(F)F)c3)CC2)nc1N(C)C`: 0.026 µM; `Cc1cc(N(C)C)nc(N[C@H]2CC[C@@H](CNC(=O)c3cc(Cl)cc(Cl)c3)CC2)n1`: 0.064 µM.
For the compound `Cc1cc(N(C)C)nc(N[C@H]2CC[C@@H](NC(=O)c3ccc(OC(F)(F)F)cc3)CC2)n1`, the half-inhibitory concentration (IC50) in test [1] was found to be 0.23 µM.
On to `Cc1cnc(N[C@H]2CC[C@@H](NC(=O)c3ccc(Cl)cc3)CC2)nc1N(C)C`, for which the 50% inhibitory concentration (IC50) in test [1] was 0.01 µM; in test [2], over 10 µM; on Histamine H1 receptor, 0.76 µM; in test [3], 0.3 µM; in test [4], 1.59 µM.
For the compound `CC(C)CC(N(C)C)C1(c2ccc(Cl)cc2)CCC1` (configuration not stated), in the test with Rattus norvegicus [6], the outcome was Active. Also, in the test with Rattus norvegicus [7], the outcome was inactive.
Consider `Cc1cc(N(C)C)nc(N[C@H]2CC[C@@H](NC(=O)c3ccc(F)cc3)CC2)n1`, for which the half-maximal inhibitory concentration (IC50) in test [1] was 0.025 µM.
As for `Cc1cc(N(C)C)nc(N[C@H]2CC[C@@H](NC(=O)c3ccc(Cl)cc3)CC2)n1`, the IC50 in test [1] came out at 0.016 µM; in test [2], 3 µM; on Histamine H1 receptor, 0.8 µM; in test [3], 0.17 µM; in test [4] it was 0.73 µM.
With `Cc1cnc(N[C@H]2CC[C@@H](NC(=O)c3ccc(F)cc3)CC2)nc1N(C)C`, the 50% inhibitory concentration (IC50) in test [1] is 0.006 µM; in test [2] it was 7.5 µM; at Histamine H1 receptor, 0.81 µM; in test [3] it was 0.3 µM; in test [4] it was 0.47 µM.
For `Cc1cc(N(C)C)nc(N[C@H]2CC[C@@H](NC(=O)c3ccc(Cl)c(Cl)c3)CC2)n1`, in that order: 0.0048 µM, over 10 µM, 0.39 µM, 0.13 µM and 0.13 µM.
What is called pA2 is the negative logarithm of the molar antagonist concentration that doubles the agonist concentration needed for the same response. With `COCC1=C(C(=O)OC)[C@H](c2ccc(F)c(F)c2)N(C(=O)NCCCN2CCC(c3cccc(NC(C)=O)c3)CC2)C(=O)N1` [SNAP-7941], in test [1], the pA2 worked out at 9.24.
Turning to `Cc1cnc(N[C@H]2CC[C@@H](NC(=O)c3ccc(F)c(F)c3)CC2)nc1N(C)C`, the half-inhibitory concentration (IC50) in test [1] was determined as 0.002 µM.
Same read-out and setting: under `Cc1cc(N(C)C)nc(N[C@H]2CC[C@@H](NC(=O)c3cccc(Cl)c3)CC2)n1` stands 0.0065 µM; under `Cc1cnc(N[C@H]2CC[C@@H](CNC(=O)c3cc(Cl)cc(Cl)c3)CC2)nc1N(C)C`, 0.004 µM; under `CN(C)CC1CCc2cc(NC(=O)c3ccc(-c4ccc(F)cc4)cc3)ccc2C1` (configuration not stated), 0.0055 µM.

Values taken from ChEMBL document CHEMBL1156067, “Pyrimidine-based antagonists of h-MCH-R1 derived from ATC0175: in vitro profiling and in vivo evaluation” (Bioorg Med Chem Lett, 2009).
